Structures are written as SMILES. Where “and” joins values, the source holds several entries; their conditions need not be identical. Equal values may be shown once. Where only a bound is given, the exact number is not on record here.

For the test, the system named is 624824-186-R-J2-PDC multicell spheroids, viability. Kind of test: Anticancer human tumor 624824-186-R-J2-PDC patient-derived colon adenocarcinoma cell line growth inhibition [PI3K]. Particulars: for viability, T/C: stronger effect = lower value. The gist of the method: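 Viability of mixed-cell spheroids was determined after exposure to pairwise combinations, one partner being inavolisib, alpelisib, duvelisib or copanlisib. Highest tested concentration matched clinical Cmax where known and 10 microM where not, descending in half-log steps.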

The mark [1] stands for this setting: curve of first compound, second compound 0.0316 µM.
[2] abbreviates: curve of first compound, second compound 0.1 µM.
Where [3] appears, read: curve of first compound, second compound 0.316 µM.
Where [4] appears, read: curve of first compound, second compound 1 µM.
The mark [5] stands for this setting: second compound 0.0316 µM, first compound 0.0316 µM.
[6] abbreviates: second compound 0.0316 µM, first compound 0.1 µM.
Setting [7] is: second compound 0.1 µM, first compound 0.0316 µM.
[8] abbreviates: second compound 0.1 µM, first compound 0.1 µM.
[9] abbreviates: second compound 0.316 µM, first compound 0.0316 µM.
Where [10] appears, read: second compound 0.316 µM, first compound 0.1 µM.
Where [11] appears, read: second compound 1 µM, first compound 0.0316 µM.
[12] abbreviates: second compound 1 µM, first compound 0.1 µM.
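Note: spheroids exposed to agents for 7 days before viability read.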
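Throughout, for viability, T/C: 100% = DMSO vehicle treated spheroids.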

In the case of `Cn1ncc(Cl)c1-c1cc(C(=O)NC(CN)Cc2cccc(F)c2)sc1Cl` (stereo not given) + Cc1nc(NC(=O)N2CCCC2C(N)=O)sc1-c1ccnc(C(C)(C)C(F)(F)F)c1, the IC50 reads like this: under setting [1], more than 10 µM; under setting [2], 9.82 µM; under setting [3], 8.5 µM; under setting [4], 8.01 µM; (curve of first compound, second compound 3.16 µM) 4.42 µM; (curve of first compound, second compound 10 µM) 3.02 µM. The viability, T/C by setting is: under setting [5], 58.2%; under setting [6], 80.2%; (second compound 0.0316 µM, first compound 0.316 µM) 77.9%; (second compound 0.0316 µM, first compound 1 µM) 82.1%; (second compound 0.0316 µM, first compound 3.16 µM) 62.6%; (second compound 0.0316 µM, first compound 10 µM) 56.1%. Moreover, the viability, T/C under setting [7] is 78.9%; the viability, T/C under setting [8] is 84.3%; the viability, T/C (second compound 0.1 µM, first compound 0.316 µM) is 70.5%; the viability, T/C (second compound 0.1 µM, first compound 1 µM) was 75.2%; the viability, T/C (second compound 0.1 µM, first compound 3.16 µM) was 64.9%; the viability, T/C (second compound 0.1 µM, first compound 10 µM) is 49.2%. Moreover, the viability, T/C is, setting by setting: under setting [9], 88.5%; under setting [10], 79%; (second compound 0.316 µM, first compound 0.316 µM) 87%; (second compound 0.316 µM, first compound 1 µM) 80%; (second compound 0.316 µM, first compound 3.16 µM) 63.5%; (second compound 0.316 µM, first compound 10 µM) 47.8%. In addition, the viability, T/C under setting [11] was 70.6%; the viability, T/C under setting [12] was 77.8%; the viability, T/C (second compound 1 µM, first compound 0.316 µM) is 86.6%; the viability, T/C (second compound 1 µM, first compound 1 µM) is 74%; the viability, T/C (second compound 1 µM, first compound 3.16 µM) was 63.5%; the viability, T/C (second compound 1 µM, first compound 10 µM) is 46.8%. Moreover, the viability, T/C is 84.1% (second compound 3.16 µM, first compound 0.0316 µM); 84.2% (second compound 3.16 µM, first compound 0.1 µM); 71.1% (second compound 3.16 µM, first compound 0.316 µM); 62.8% (second compound 3.16 µM, first compound 1 µM); 62.6% (second compound 3.16 µM, first compound 3.16 µM); 34.7% (second compound 3.16 µM, first compound 10 µM). Moreover, the viability, T/C reads like this: (second compound 10 µM, first compound 0.0316 µM) 80.7%; (second compound 10 µM, first compound 0.1 µM) 73.3%; (second compound 10 µM, first compound 0.316 µM) 64%; (second compound 10 µM, first compound 1 µM) 66.8%; (second compound 10 µM, first compound 3.16 µM) 49.1%; (second compound 10 µM, first compound 10 µM) 30.9%.

As to `CC1(C)CCC(CN2CCN(c3ccc(C(=O)NS(=O)(=O)c4ccc(NCC5CCOCC5)c([N+](=O)[O-])c4)c(Oc4cnc5[nH]ccc5c4)c3)CC2)=C(c2ccc(Cl)cc2)C1`, the viability, T/C runs as follows: (compound 0.1 µM) 78.7% (2×) and 107% and 95.2%; (compound 0.316 µM) 80.4% [middle of 4 runs]; (compound 3.16 µM) 67% [middle of 4 runs]; (compound 10 µM) 72.2% [middle of 4 runs]. For the setting “curve of compound”, the half-inhibitory concentration (IC50) is more than 10 µM.

For `CNC(=O)c1ccc(N2C(=S)N(c3ccc(C#N)c(C(F)(F)F)c3)C(=O)C2(C)C)cc1F`, the IC50 (curve of compound) was more than 10 µM.

Regarding `CC(=O)c1c(C)c2cnc(Nc3ccc(N4CCNCC4)cn3)nc2n(C2CCCC2)c1=O` + CC(Nc1ccc2c(c1)OCCn1cc(N3C(=O)OCC3C(F)F)nc1-2)C(N)=O, the IC50 is, setting by setting: (curve of first compound, second compound 0.00316 µM) more than 0.1 µM; (curve of first compound, second compound 0.01 µM) more than 0.1 µM; under setting [1], more than 0.1 µM; under setting [2], more than 0.1 µM; under setting [3], more than 0.1 µM; under setting [4], more than 0.1 µM. The viability, T/C (second compound 0.00316 µM, first compound 0.000316 µM) was 105%; the viability, T/C (second compound 0.00316 µM, first compound 0.001 µM) was 80.9%; the viability, T/C (second compound 0.00316 µM, first compound 0.00316 µM) was 108%; the viability, T/C (second compound 0.00316 µM, first compound 0.01 µM) was 96.2%; the viability, T/C (second compound 0.00316 µM, first compound 0.0316 µM) is 82.7%; the viability, T/C (second compound 0.00316 µM, first compound 0.1 µM) is 89.9%. Also, the viability, T/C was 114% (second compound 0.01 µM, first compound 0.000316 µM); 92.7% (second compound 0.01 µM, first compound 0.001 µM); 106% (second compound 0.01 µM, first compound 0.00316 µM); 101% (second compound 0.01 µM, first compound 0.01 µM); 93.7% (second compound 0.01 µM, first compound 0.0316 µM); 91.7% (second compound 0.01 µM, first compound 0.1 µM). Further, the viability, T/C is 104% (second compound 0.0316 µM, first compound 0.000316 µM); 94.2% (second compound 0.0316 µM, first compound 0.001 µM); 113% (second compound 0.0316 µM, first compound 0.00316 µM); 85.2% (second compound 0.0316 µM, first compound 0.01 µM); 101% under setting [5]; 102% under setting [6]. The viability, T/C (second compound 0.1 µM, first compound 0.000316 µM) is 86.7%; the viability, T/C (second compound 0.1 µM, first compound 0.001 µM) is 101%; the viability, T/C (second compound 0.1 µM, first compound 0.00316 µM) was 91.2%; the viability, T/C (second compound 0.1 µM, first compound 0.01 µM) was 75.5%; the viability, T/C under setting [7] was 80.1%; the viability, T/C under setting [8] was 87.7%. Moreover, the viability, T/C runs as follows: (second compound 0.316 µM, first compound 0.000316 µM) 87.7%; (second compound 0.316 µM, first compound 0.001 µM) 76.6%; (second compound 0.316 µM, first compound 0.00316 µM) 78.8%; (second compound 0.316 µM, first compound 0.01 µM) 85.8%; under setting [9], 87%; under setting [10], 113%. Further, the viability, T/C reads like this: (second compound 1 µM, first compound 0.000316 µM) 90%; (second compound 1 µM, first compound 0.001 µM) 85.4%; (second compound 1 µM, first compound 0.00316 µM) 86.5%; (second compound 1 µM, first compound 0.01 µM) 87.3%; under setting [11], 86.1%; under setting [12], 93.1%.

The values above are taken from PubChem BioAssay AID1963975 (Molecular Pharmacology Branch, DTP, NCI, 2024).
